For 14 compounds, GI50 and TGI results are on record in PubChem BioAssay (NCI).

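Test compounds were applied to cells in 96-well plates for 48 hours at 5 doses. GI50 marks 50% less growth. TGI: total growth inhibition.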

Among the test systems are NCI-H460 lung; UACC-62 melanoma; MALME-3M melanoma; SF-268 CNS; SK-OV-3 ovarian; NCI-H23 lung; OVCAR-5 ovarian; TK-10 renal; SK-MEL-2 melanoma.
Common to all, as to test: NCI anticancer screen, dose series, 48 h

Regarding `CCCCN(CC)c1ncnc2ccc(Br)cc12`, the GI50 in the test on NCI-H460 lung was 17.9 µM; in the test on UACC-62 melanoma, 15.7 µM; with MALME-3M melanoma, 19.1 µM; with SF-268 CNS, 19.1 µM; in the test on SK-OV-3 ovarian, 18.8 µM; in the test with NCI-H23 lung, 18.8 µM. Besides, the GI50 in the test on OVCAR-5 ovarian was 20.5 µM; in the test on TK-10 renal, 19.7 µM; in the test on SK-MEL-2 melanoma, 29.5 µM. In addition, the TGI turned out to be 52.9 µM in the test with NCI-H460 lung; 34.7 µM in the test on UACC-62 melanoma; 38.5 µM in the test on MALME-3M melanoma; 68 µM in the test with SF-268 CNS; 49.4 µM with SK-OV-3 ovarian; 44.4 µM in the test with NCI-H23 lung. Besides, the TGI was 49.8 µM with OVCAR-5 ovarian, 39.8 µM in the test with TK-10 renal and greater than 100 µM in the test on SK-MEL-2 melanoma.
Consider `COC(=O)[C@]1(C)C(OC)=CC(=O)C2C1[C@H]1CCC[C@@H]21` (stereo partly drawn), for which the TGI in the test with NCI-H460 lung, with UACC-62 melanoma, in the test with MALME-3M melanoma, in the test with SF-268 CNS, in the test with SK-OV-3 ovarian and in the test on NCI-H23 lung was greater than 100 µM throughout. Also, the TGI in the test with OVCAR-5 ovarian, with TK-10 renal and with SK-MEL-2 melanoma was greater than 100 µM each time.
With `COc1ccccc1NC(=O)C1=C(C)NC(C)=C(C(=O)Nc2ccccc2OC)C1c1ccc(N(C)C)cc1`, the TGI with NCI-H460 lung is greater than 100 µM; in the test with MALME-3M melanoma, greater than 100 µM; with SF-268 CNS, greater than 100 µM; with SK-OV-3 ovarian, 84.5 µM; in the test with NCI-H23 lung, 82.3 µM; in the test with OVCAR-5 ovarian it was greater than 100 µM. Further, the results for the TGI in the test on TK-10 renal and in the test on SK-MEL-2 melanoma were greater than 100 µM and 48.2 µM, respectively.
Consider `COc1cc(/C=C/c2ccc(OC)c(OC)c2OC)cc(OC)c1OC`, for which the TGI with NCI-H460 lung was 56.2 µM; with UACC-62 melanoma, 28.1 µM; with MALME-3M melanoma, 48.7 µM; in the test with SF-268 CNS it was greater than 64.2 µM; in the test on SK-OV-3 ovarian it was 57.6 µM; with NCI-H23 lung, 69.2 µM. Further, the figures for the TGI with OVCAR-5 ovarian, in the test with TK-10 renal and in the test on SK-MEL-2 melanoma were 74.4 µM, greater than 82.9 µM and 36.1 µM, respectively.
Take `COC(=O)C(CC(=O)c1c[nH]c2ccccc12)c1c[nH]c2ccccc12` (stereo not drawn): the TGI with NCI-H460 lung is 37.9 µM; in the test on UACC-62 melanoma, greater than 10 µM; in the test on MALME-3M melanoma, 52.3 µM; in the test with SK-OV-3 ovarian, 69.9 µM; in the test on NCI-H23 lung, 34 µM; in the test with OVCAR-5 ovarian, 42.1 µM. Also, the TGI amounted to 76.9 µM with TK-10 renal and 44.2 µM in the test with SK-MEL-2 melanoma.
Turning to `CS(=O)(=O)NNS(=O)(=O)c1ccc(Cl)cc1`, the TGI in the test with NCI-H460 lung, in the test on UACC-62 melanoma, in the test with MALME-3M melanoma, with NCI-H23 lung, in the test with TK-10 renal and with SK-MEL-2 melanoma was greater than 100 µM each time.
Turning to `CCOC(=O)c1c(-c2ccccc2)c(C(OC(c2ccccc2)c2c(-c3ccccc3)c(C(=O)OCC)n3ccccc23)c2ccccc2)c2ccccn12` (stereo not drawn), the TGI in the test on NCI-H460 lung, with UACC-62 melanoma, with MALME-3M melanoma, in the test on SF-268 CNS, in the test on SK-OV-3 ovarian and in the test on NCI-H23 lung was greater than 100 µM in each case. In addition, the TGI in the test on OVCAR-5 ovarian, with TK-10 renal and in the test with SK-MEL-2 melanoma was greater than 100 µM in each case.
In the case of `ClCc1ccc(C2OCCO2)cc1`, the TGI was 39.4 µM with NCI-H460 lung; greater than 52 µM in the test on UACC-62 melanoma; 49.9 µM in the test with MALME-3M melanoma; greater than 100 µM in the test on SF-268 CNS; greater than 82 µM in the test with SK-OV-3 ovarian; 17.2 µM in the test with NCI-H23 lung. For the same compound, the TGI with OVCAR-5 ovarian was greater than 63.9 µM; with TK-10 renal, greater than 75.3 µM; in the test with SK-MEL-2 melanoma, 42.2 µM.
With `COC(=O)c1ccc(C(=O)OC)c2nc3cc(C)ccc3nc12`, the TGI in the test on NCI-H460 lung, with UACC-62 melanoma, in the test on MALME-3M melanoma, in the test with SF-268 CNS, with SK-OV-3 ovarian and in the test on NCI-H23 lung was greater than 100 µM throughout. In addition, the TGI in the test on OVCAR-5 ovarian, with TK-10 renal and in the test on SK-MEL-2 melanoma was greater than 100 µM in each case.
For `Cc1cccc(N=C2NC(=O)C(CC(=O)Nc3ccc(C)cc3C)S2)c1` (stereo not drawn), the TGI with NCI-H460 lung, with UACC-62 melanoma, in the test with MALME-3M melanoma, in the test on SF-268 CNS, in the test with NCI-H23 lung and in the test on OVCAR-5 ovarian was greater than 100 µM each time. Moreover, the TGI in the test with TK-10 renal and with SK-MEL-2 melanoma was greater than 100 µM throughout.
As for `CC(/C=C/NNC1=NC(c2ccccc2)C(c2ccccc2)=NN1)Sc1ccccc1N` (stereo not drawn), the TGI in the test with NCI-H460 lung was 24.9 µM; in the test on UACC-62 melanoma, 10.8 µM; in the test with MALME-3M melanoma, 20.9 µM; in the test with SF-268 CNS, 16 µM; in the test with SK-OV-3 ovarian, 31 µM; in the test with NCI-H23 lung, 29.7 µM. The TGI stood at 31.3 µM in the test on OVCAR-5 ovarian, 27.2 µM in the test on TK-10 renal and 21.2 µM in the test with SK-MEL-2 melanoma.
Consider `COc1c(Sc2ccccc2)cc(Sc2ccccc2)c2cccnc12`, for which the TGI in the test with NCI-H460 lung is 54.5 µM; in the test with UACC-62 melanoma it was 63.2 µM; in the test on MALME-3M melanoma, 44.1 µM; in the test on SF-268 CNS it was greater than 100 µM; in the test with SK-OV-3 ovarian it was greater than 100 µM; in the test with NCI-H23 lung it was 62.1 µM. Moreover, the TGI with OVCAR-5 ovarian was greater than 100 µM; in the test with TK-10 renal, 81.3 µM; in the test on SK-MEL-2 melanoma, 42.6 µM.
Regarding `COc1ccc2ccccc2c1CN1CCOCCOCCN(Cc2c(OC)ccc3ccccc23)CCOCCOCC1`, the TGI in the test on NCI-H460 lung is greater than 100 µM; in the test on UACC-62 melanoma, greater than 100 µM; with MALME-3M melanoma, greater than 63.9 µM; in the test on SF-268 CNS, greater than 100 µM; in the test on SK-OV-3 ovarian it was greater than 100 µM; in the test on NCI-H23 lung it was greater than 100 µM. Also, the TGI is greater than 100 µM in the test with OVCAR-5 ovarian, greater than 100 µM in the test with TK-10 renal and 97.4 µM in the test on SK-MEL-2 melanoma.
With `Nc1ccc(C(=O)CC2(O)C(=O)Nc3c(Cl)cc(Cl)cc32)cc1` (stereo not drawn), the TGI in the test with NCI-H460 lung, in the test with MALME-3M melanoma, with SF-268 CNS, with SK-OV-3 ovarian, with NCI-H23 lung and in the test with OVCAR-5 ovarian was greater than 100 µM each time. Further, the TGI in the test on TK-10 renal and with SK-MEL-2 melanoma was greater than 100 µM in each case.
